Reference: patent publication US9440952B2, “Compounds inhibiting leucine-rich repeat kinase enzyme activity” (Merck Sharp & Dohme Corp., priority 2013, dated 2016)
Where two headings read alike, the source gives them in different places.

Biological target: T1, LRRK2(G2019S mutation, GST-LRRK2(amino acids 970-2527)) (Homo sapiens, UniProt Q5S007, G2019S)
T1 construct: GST-LRRK2(amino acids 970-2527); GST (N); purchased Life Technologies Corporation
Assay: LRRK2 Km ATP LanthaScreen Assay
Format: biochemical
Conditions: read-out: LRRK2 IC50
Method: Unless otherwise noted, all LRRK2 IC50 data presented in tables refers to the LRRK2 Km ATP LanthaScreen™ Assay that is described in the Biological Assay section.
The data presented for the 5 mM and Km ATP LanthaScreen™ Assay represents mean IC50 values based on several test results and may have reasonable. deviations depending on the specific conditions and reagents used. Reagents for the LRRK2 5 mM and Km ATP LanthaScreen™ Assay were purchased from Life Technologies Corporation.
Results are analysed using Assay Data Analyzer.

[1] = Km ATP LanthaScreen, mean IC50 of several tests
[2] = Km ATP LanthaScreen Assay, LRRK2 G2019S, mean IC50 values

T1 sequence (Q5S007 970-2527 G2019S): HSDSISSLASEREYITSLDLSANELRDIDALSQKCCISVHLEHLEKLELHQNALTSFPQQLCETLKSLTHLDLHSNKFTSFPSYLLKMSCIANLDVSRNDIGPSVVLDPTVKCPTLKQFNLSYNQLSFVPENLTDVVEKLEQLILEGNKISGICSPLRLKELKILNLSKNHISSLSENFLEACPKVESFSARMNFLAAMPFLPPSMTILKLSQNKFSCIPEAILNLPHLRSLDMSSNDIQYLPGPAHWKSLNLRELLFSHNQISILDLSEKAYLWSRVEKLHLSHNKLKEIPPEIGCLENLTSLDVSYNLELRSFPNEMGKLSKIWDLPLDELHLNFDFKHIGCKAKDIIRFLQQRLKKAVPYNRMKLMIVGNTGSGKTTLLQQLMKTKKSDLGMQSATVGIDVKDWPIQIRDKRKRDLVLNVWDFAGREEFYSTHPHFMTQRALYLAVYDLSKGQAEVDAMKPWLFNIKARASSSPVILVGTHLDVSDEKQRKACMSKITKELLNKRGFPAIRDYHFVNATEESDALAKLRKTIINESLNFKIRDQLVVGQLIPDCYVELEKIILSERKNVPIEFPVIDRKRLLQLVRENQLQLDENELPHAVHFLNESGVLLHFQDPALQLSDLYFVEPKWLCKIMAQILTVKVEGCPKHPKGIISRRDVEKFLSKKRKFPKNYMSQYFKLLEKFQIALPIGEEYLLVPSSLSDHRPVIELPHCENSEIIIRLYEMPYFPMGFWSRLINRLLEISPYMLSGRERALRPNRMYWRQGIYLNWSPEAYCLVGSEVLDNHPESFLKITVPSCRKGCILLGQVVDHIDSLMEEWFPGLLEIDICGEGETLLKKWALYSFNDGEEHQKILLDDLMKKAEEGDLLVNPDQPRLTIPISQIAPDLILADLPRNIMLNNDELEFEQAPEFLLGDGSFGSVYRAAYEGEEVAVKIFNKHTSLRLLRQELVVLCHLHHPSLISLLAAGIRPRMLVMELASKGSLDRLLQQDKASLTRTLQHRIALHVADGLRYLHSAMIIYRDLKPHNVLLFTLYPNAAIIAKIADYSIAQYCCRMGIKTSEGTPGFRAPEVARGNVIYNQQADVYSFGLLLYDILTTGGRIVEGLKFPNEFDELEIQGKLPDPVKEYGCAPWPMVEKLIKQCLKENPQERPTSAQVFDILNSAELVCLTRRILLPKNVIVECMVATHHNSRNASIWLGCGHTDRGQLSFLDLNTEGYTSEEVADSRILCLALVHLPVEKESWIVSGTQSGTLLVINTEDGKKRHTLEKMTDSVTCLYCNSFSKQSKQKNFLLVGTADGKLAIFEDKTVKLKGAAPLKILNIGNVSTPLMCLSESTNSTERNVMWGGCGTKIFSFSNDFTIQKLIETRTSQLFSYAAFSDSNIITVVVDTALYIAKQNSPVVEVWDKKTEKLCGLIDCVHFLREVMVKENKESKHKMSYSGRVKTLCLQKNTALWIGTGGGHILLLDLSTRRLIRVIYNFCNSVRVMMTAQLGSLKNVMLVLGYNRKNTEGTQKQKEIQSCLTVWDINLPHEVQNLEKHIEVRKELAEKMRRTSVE

Compound	IC50 [1]	IC50 [2]
FCOc1ccc2[nH]nc(-c3ccnc(N4CCOCC4)c3)c2c1 [Example 85]	10.2 nM	–
OCc1ccc2[nH]nc(-c3ccnc(N4CCOCC4)c3)c2c1 [Example 86]	16.4 nM	–
c1cc(-c2n[nH]c3ccc(CNCC4CC4)cc23)cc(N2CCOCC2)n1 [Example 87]	424 nM	–
c1cc(-c2n[nH]c3ccc(CN4CCCCC4)cc23)cc(N2CCOCC2)n1 [Example 88]	–	164 nM
CN(C)Cc1ccc2[nH]nc(-c3ccnc(N4CCOCC4)c3)c2c1 [Example 89]	–	35 nM
CNCc1ccc2[nH]nc(-c3ccnc(N4CCOCC4)c3)c2c1 [Example 90]	–	302 nM
COC1CN(Cc2ccc3[nH]nc(-c4ccnc(N5CCOCC5)c4)c3c2)C1 [Example 91]	–	161 nM
CN(Cc1ccc2[nH]nc(-c3ccnc(N4CCOCC4)c3)c2c1)C1CCCC1 [Example 92]	–	54 nM
N#CCCNCc1ccc2[nH]nc(-c3ccnc(N4CCOCC4)c3)c2c1 [Example 93]	–	30 nM
CN(Cc1ccc2[nH]nc(-c3ccnc(N4CCOCC4)c3)c2c1)Cc1ccco1 [Example 94]	–	13 nM
CCN(CC)CCNCc1ccc2[nH]nc(-c3ccnc(N4CCOCC4)c3)c2c1 [Example 95]	–	273 nM
c1cc(-c2n[nH]c3ccc(CNC4CCCNC4)cc23)cc(N2CCOCC2)n1 (stereo not drawn) [Example 96]	–	110 nM
c1cc(-c2ccc3[nH]nc(-c4ccnc(N5CCOCC5)c4)c3c2)ccn1 [Example 97]	13.7 nM	–
c1cncc(-c2ccc3[nH]nc(-c4ccnc(N5CCOCC5)c4)c3c2)c1 [Example 98]	3.4 nM	–
c1ccc(-c2ccc3[nH]nc(-c4ccnc(N5CCOCC5)c4)c3c2)nc1 [Example 99]	13.7 nM	–
Oc1cc(-c2ccc3[nH]nc(-c4ccnc(N5CCOCC5)c4)c3c2)ccn1 [Example 100]	3.4 nM	–
c1ccc(COc2ccnc(-c3ccc4[nH]nc(-c5ccnc(N6CCOCC6)c5)c4c3)n2)cc1 [Example 101]	–	182 nM
COc1cnccc1-c1ccc2[nH]nc(-c3ccnc(N4CCOCC4)c3)c2c1 [Example 102]	–	0.2 nM
Brc1ccc2c(-c3ccnc(N4CCOCC4)c3)n[nH]c2c1 [Example 103]	19 nM	–
Cc1ccc2c(-c3ccnc(N4CCOCC4)c3)n[nH]c2c1 [Example 104]	35 nM	–
COc1ccc2c(-c3ccnc(N4CCOCC4)c3)n[nH]c2c1 [Example 105]	30 nM	–

Compound	IC50 [1]	IC50 [2]
N#Cc1ccc2c(-c3ccnc(N4CCOCC4)c3)n[nH]c2c1 [Example 106]	49 nM	–
O=C(c1ccccc1)c1ccc2[nH]nc(-c3ccnc(N4CCOCC4)c3)c2c1 [Example 107]	3.4 nM	–
CS(=O)(=O)c1cccc(Nc2ccc3[nH]nc(-c4ccnc(N5CCOCC5)c4)c3c2)c1 [Example 108]	9.3 nM	–
CN(C)c1cc(-c2n[nH]c3ccc(Nc4cccc(S(C)(=O)=O)c4)cc23)ccn1 [Example 109]	–	34 nM
CC(C)CCNc1cc(-c2n[nH]c3ccc(Nc4cccc(S(C)(=O)=O)c4)cc23)ccn1 [Example 110]	–	83 nM
CCNc1cc(-c2n[nH]c3ccc(Nc4cccc(S(C)(=O)=O)c4)cc23)ccn1 [Example 111]	–	35 nM
CS(=O)(=O)c1cccc(Nc2ccc3[nH]nc(-c4ccnc(NC5CC5)c4)c3c2)c1 [Example 112]	–	11 nM
COc1ccccc1Nc1cc(-c2n[nH]c3ccc(Nc4cccc(S(C)(=O)=O)c4)cc23)ccn1 [Example 113]	422 nM	–
Cc1cccc(Nc2ccc3[nH]nc(-c4ccnc(N5CCOCC5)c4)c3c2)c1 [Example 114]	28.7 nM	–
CCN(c1cccc(C)c1)c1ccc2[nH]nc(-c3ccnc(N4CCOCC4)c3)c2c1 [Example 115]	1570 nM	–
c1ccc(Cc2ccc3[nH]nc(-c4ccnc(N5CCOCC5)c4)c3c2)cc1 [Example 116]	45 nM	–
COc1ccnc(F)c1-c1ccc2[nH]nc(-c3ccnc(N4CCOCC4)c3)c2c1 [Example 117]	3.4 nM	–
Oc1ccncc1-c1ccc2[nH]nc(-c3ccnc(N4CCOCC4)c3)c2c1 [Example 118]	70 nM	–
Oc1ccnc(F)c1-c1ccc2[nH]nc(-c3ccnc(N4CCOCC4)c3)c2c1 [Example 119]	34 nM	–
Oc1cc(-c2ccc3[nH]nc(-c4ccnc(N5CCNCC5)c4)c3c2)ccn1 [Example 120]	3.4 nM	–
COC1CCN(c2cc(-c3n[nH]c4ccc(-c5ccnc(O)c5)cc34)ccn2)CC1 [Example 122]	–	1.1 nM
CN1CCN(c2cc(-c3n[nH]c4ccc(-c5ccnc(O)c5)cc34)ccn2)CC1 [Example 123]	–	2.7 nM
Cc1ccc2[nH]nc(-c3ccnc(N4CCOCC4)c3)c2c1 [Example 124]	9.6 nM	–
c1ccc(-c2ccc3c(-c4ccnc(N5CCOCC5)c4)n[nH]c3c2)cc1 [Example 125]	34 nM	–
CC(O)c1ccc2[nH]nc(-c3ccnc(N4CCOCC4)c3)c2c1 (stereo not drawn) [Example 126]	9.9 nM	–
CC(O)c1ccc2[nH]nc(-c3ccnc(N4CCOC(CCO)C4)c3)c2c1 (stereo not drawn) [Example 127]	–	17 nM

Compound	IC50 [1]	IC50 [2]
OCCC1CN(c2cc(-c3n[nH]c4ccc(CO)cc34)ccn2)CCO1 (stereo not drawn) [Example 128]	–	10 nM
CC(CO)Nc1cc(-c2n[nH]c3ccc(OC(C)C)cc23)ccn1 (stereo not drawn) [Example 129]	–	2120 nM
CC(C)Oc1ccc2[nH]nc(-c3ccnc(NC4Cc5ccccc5C4)c3)c2c1 [Example 130]	–	13.3 nM
CC(C)Oc1ccc2[nH]nc(-c3ccnc(N4CCCC(CO)C4)c3)c2c1 (stereo not drawn) [Example 131]	–	1.5 nM
CC(C)Oc1ccc2[nH]nc(-c3ccnc(NCc4ccccn4)c3)c2c1 [Example 132]	–	2.2 nM
CC(C)Oc1ccc2[nH]nc(-c3ccnc(NCCc4ccccn4)c3)c2c1 [Example 133]	–	0.8 nM
CC(C)Oc1ccc2[nH]nc(-c3ccnc(NCC4CC4)c3)c2c1 [Example 134]	–	2 nM
CC(C)Oc1ccc2[nH]nc(-c3ccnc(NCC4CCCO4)c3)c2c1 (stereo not drawn) [Example 135]	–	3.2 nM
COCCN(C)c1cc(-c2n[nH]c3ccc(OC(C)C)cc23)ccn1 [Example 136]	–	4.9 nM
CC(C)Oc1ccc2[nH]nc(-c3ccnc(NC4CC4)c3)c2c1 [Example 137]	–	24.3 nM
COC1CCCN(c2cc(-c3n[nH]c4ccc(OC(C)C)cc34)ccn2)C1 (stereo not drawn) [Example 138]	–	11.4 nM
CC(C)Oc1ccc2[nH]nc(-c3ccnc(N4CCc5ccccc5C4)c3)c2c1 [Example 139]	–	18.1 nM
CC(C)Oc1ccc2[nH]nc(-c3ccnc(NCCO)c3)c2c1 [Example 140]	–	7.3 nM
Cc1cc(C(=O)Nc2cc(-c3n[nH]c4ccc(OC(C)C)cc34)ccn2)n(C)n1 [Example 141]	–	51.4 nM
CC(C)Oc1ccc2[nH]nc(-c3ccnc(NC(=O)c4ccno4)c3)c2c1 [Example 142]	–	21.4 nM
CC(C)Oc1ccc2[nH]nc(-c3ccnc(NC(=O)c4ccc(C#N)cc4)c3)c2c1 [Example 143]	–	113 nM
CC(C)Oc1ccc2[nH]nc(-c3ccnc(NC(=O)c4ccccn4)c3)c2c1 [Example 144]	–	29.2 nM
CC(C)Oc1ccc2[nH]nc(-c3ccnc(NC(=O)c4ccc5c(c4)C(=O)NC5)c3)c2c1 [Example 145]	–	52 nM
CC(C)Oc1ccc2[nH]nc(-c3ccnc(NC(=O)c4ccccc4-n4cncn4)c3)c2c1 [Example 146]	–	36.8 nM
CC(C)Oc1ccc2[nH]nc(-c3ccnc(NC(=O)c4cnc(C(C)C)nc4)c3)c2c1 [Example 147]	–	70.8 nM
CC(C)Oc1ccc2[nH]nc(-c3ccnc(NC(=O)c4ccnc(-n5cnnn5)c4)c3)c2c1 [Example 148]	–	23.9 nM

Compound	IC50 [1]	IC50 [2]
CC(C)CCC(=O)Nc1cc(-c2n[nH]c3ccc(OC(C)C)cc23)ccn1 [Example 149]	–	79.6 nM
COCCC(=O)Nc1cc(-c2n[nH]c3ccc(OC(C)C)cc23)ccn1 [Example 150]	–	51.7 nM
CC(C)Oc1ccc2[nH]nc(-c3ccnc(NC(=O)C(C)c4ccccc4)c3)c2c1 (stereo not drawn) [Example 151]	–	51.9 nM
CC(C)Oc1ccc2[nH]nc(-c3ccnc(NC(=O)CC4CC4)c3)c2c1 [Example 152]	–	35.8 nM
CC(C)Oc1ccc2[nH]nc(-c3ccnc(NC(=O)C4CC(=O)C4)c3)c2c1 [Example 153]	–	29.7 nM
CC(C)Oc1ccc2[nH]nc(-c3ccnc(NC(=O)C(C)C)c3)c2c1 [Example 154]	–	39.4 nM
Cc1cc(CC(=O)Nc2cc(-c3n[nH]c4ccc(OC(C)C)cc34)ccn2)on1 [Example 155]	–	13.4 nM
CC(C)Oc1ccc2[nH]nc(-c3ccnc(NC(=O)C4CCCC4)c3)c2c1 [Example 156]	–	53.1 nM
CC(C)Oc1ccc2[nH]nc(-c3ccnc(NC(=O)Cc4ccsc4)c3)c2c1 [Example 157]	–	34.4 nM
CC(C)Oc1ccc2[nH]nc(-c3ccnc(NC(=O)C4CC4c4cncnc4)c3)c2c1 (stereo not drawn) [Example 158]	–	30.9 nM
COc1ccc(C2CC2C(=O)Nc2cc(-c3n[nH]c4ccc(OC(C)C)cc34)ccn2)cc1 (stereo not drawn) [Example 159]	–	782 nM
CC(C)Oc1ccc2[nH]nc(-c3ccnc(NC(=O)C4CC45CCCC5)c3)c2c1 (stereo not drawn) [Example 160]	–	140 nM
Cc1nonc1CC(=O)Nc1cc(-c2n[nH]c3ccc(OC(C)C)cc23)ccn1 [Example 161]	–	32 nM
CC(C)Oc1ccc2[nH]nc(-c3ccnc(NC(=O)CCc4cnn(C)c4)c3)c2c1 [Example 162]	–	27.2 nM
Cc1nc(C)c(CC(=O)Nc2cc(-c3n[nH]c4ccc(OC(C)C)cc34)ccn2)s1 [Example 163]	–	34.9 nM
CC(C)Oc1ccc2[nH]nc(-c3ccnc(NC(=O)C4CCOCC4)c3)c2c1 [Example 164]	–	27.7 nM
CC(C)Oc1ccc2[nH]nc(-c3ccnc(NC(=O)CC4CCC(=O)N4)c3)c2c1 (stereo not drawn) [Example 165]	–	23.4 nM
CC(C)Oc1ccc2[nH]nc(-c3ccnc(NC(=O)C4CC(F)(F)C4)c3)c2c1 [Example 166]	–	73.5 nM
